Source: patent US7186701B2, “Dehydrating agent and method for dehydrating moist article using the agent and dehydrated article obtained by the method” (Kabushiki Kaisha Hayashibara Seibutsu Kagaku Kenkyujo, priority 2001, dated 2007)

Key:
[1] = test system: internal content of rat cecum; assay: Fermentation test; assay type: in vitro ADME
Method: The internal content of rat cecum was collected by anesthetizing a Wister male rat with ether, anatomizing the rat, collecting the internal content under anaerobic conditions, and suspending the resultant with 4-fold volumes of a 0.1 M aqueous solution of sodium bicarbonate. The cyclotetrasaccharide was added to the internal content of rat cecum in an amount of about 7% by weight, and the levels of cyclotetrasaccharide remained just after and 12 hours after the addition of the internal content were quantified on gas chromatography.

amylopsin = molecular target: T1, amylopsin (Homo sapiens, UniProt P04746)
T1 sequence (P04746 16-511): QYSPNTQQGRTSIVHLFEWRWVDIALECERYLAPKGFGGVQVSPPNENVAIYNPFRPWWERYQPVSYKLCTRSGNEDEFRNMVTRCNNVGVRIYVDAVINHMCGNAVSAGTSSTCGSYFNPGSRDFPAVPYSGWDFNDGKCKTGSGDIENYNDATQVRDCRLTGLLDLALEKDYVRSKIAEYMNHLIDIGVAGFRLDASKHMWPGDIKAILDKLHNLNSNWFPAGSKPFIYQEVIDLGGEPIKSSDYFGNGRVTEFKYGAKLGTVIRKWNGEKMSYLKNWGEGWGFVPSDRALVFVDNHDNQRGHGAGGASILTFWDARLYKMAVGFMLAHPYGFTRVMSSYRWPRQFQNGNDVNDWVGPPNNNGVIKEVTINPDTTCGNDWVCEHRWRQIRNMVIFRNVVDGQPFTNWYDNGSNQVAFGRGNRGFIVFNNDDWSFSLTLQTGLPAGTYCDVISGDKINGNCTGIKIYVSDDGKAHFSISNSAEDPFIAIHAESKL

For `OCC1OC2OCC3O[C@H](O[C@H]4C(O)C(CO)OC(OCC5O[C@H](O[C@@H](C1O)C2O)C(O)C(O)[C@@H]5O)C4O)C(O)C(O)[C@@H]3O` (stereo partly drawn) [cyclotetrasaccharide, cyclo{→6)-α-D-glucopyranosyl-(1→3)-α-D-glucopyranosyl-(1→6)-α-D-glucopyranosyl-(1→3)-α-D-glucopyranosyl-(1→}], the cyclotetrasaccharide remained intact ([1]; 12 hours after the addition) was 93%, the “level of cyclotetrasaccharide remained” value ([1]; 12 hours after the addition) was 63.0 mg per one gram of the internal content of rat cecum and the “level of cyclotetrasaccharide remained” value ([1]; just after the addition) was 68.0 mg per one gram of the internal content of rat cecum. For the same molecule, the “Decomposition percentage (%) by digestive enzyme” value (amylopsin) was 0.0%.
